Legend:
[1] = tested on: CD70; settings: PHA-stimulated T cells, 3 days, oligonucleotide arrays, mean±SEM, 2 independent experiments
[2] = tested on: CD70 mRNA; assay: Real time RT-PCR of CD70 transcripts relative to β-actin in T cells; type: cell-based, human; settings: for CD70 mRNA (transcripts) in CD4+ T cells: anti-CD3 + anti-CD28, 3 days, 5 μm 5-azaC, 50 μm Pca, 20 μm Hyd, 40 μm UO126, 25 μm PD98059 (FIG. 9); for expression of CD70 mRNA relative to that of beta-actin: PHA-stimulated T cells, treated vs untreated, real time RT-PCR (FIG. 1B)
Description: Cells and cell culture. Peripheral blood mononuclear cells (PBMCs) were isolated by density-gradient centrifugation. T cells were then isolated by E-rosetting (See, e.g., Golbus et al., Clin Immunol Immunopathol 46, 129 (1988)). […] Where indicated, the cells were cultured in RPMI 1640/10% fetal calf serum (FCS) supplemented with interleukin-2 (IL-2) (See, e.g., Richardson et al., Clin Immunol Immunopathol 55, 368 (1990)), in round-bottomed 5-ml culture tubes (FALCON). Cells were stimulated with 1 μg/ml of PHA (REMEL) for 16 hours, then cultured in 24-well plates at a density of 1×10^6 for an additional 72 hours in the presence of 2-deoxy-5-azaC or 5-azaC (SIGMA ALDRICH), procainamide (SIGMA ALDRICH), hydralazine (SIGMA ALDRICH), or the MEK inhibitors U0126 (PROMEGA) or PD98059 (PROMEGA). In other studies, PHA-stimulated PBMCs were cultured in RPMI 1640/10% FCS and treated with indomethacin, chloroquine, hydrocortisone, and 6-mercaptopurine (6-MP) (all from SIGMA ALDRICH). TT48E, a cloned, CD4+, tetanus toxoid-reactive human T cell line, was cultured as previously described (Cornacchia et al., J Immunol 140, 2197 (1988); Richardson et al., Arthritis Rheum 35, 647 (1992)).
(§1) In other studies, T cells were isolated by negative selection using magnetic beads and instructions provided by the manufacturer (Pan T cell Isolation Kit, Miltenyi), and the CD4+ or CD8+ subset was similarly isolated by magnetic cell sorting. Jurkat cells (E6-1) were cultured as previously described (See, e.g., Cornacchia et al., J Immunol 140:2197 (1998)). Purified human CD4+ T cells were first stimulated with plate bound anti-CD3 and soluble anti-CD28. Briefly, 24 well plates were coated with 300 μl of anti-CD3 (10 μg/ml in PBS—SouthernBiotech) 18 hours 4° C., washed, then 2×10^6 purified T cells were added to the wells in 2 ml RPMI 1640/10% FCS containing 2 μg/ml anti-CD28 (SouthernBiotech).

[3] = tested on: CD70 promoter; assay: Bisulfite sequencing of the CD70 (TNFSF7) promoter in CD4+ T cells; type: cell-based, human; settings: for methylation of the 10 CG pairs between −515 and −423 of the TNFSF7 promoter: CD4+ T cells stimulated with anti-CD3 and anti-CD28, vs stimulated untreated controls (FIG. 13, 14)
Description: as §1
Bisulfite sequencing. The putative CD70 promoter was identified using the published CD70 cDNA sequence and Tfsitescan software. Deoxycytosine (dC) and deoxymethylcytosine (d^mC) bases in the gene promoter and 5′ flanking sequences were identified by bisulfite treatment of purified DNA followed by nested PCR amplification of 3 sequential fragments to span the entire region. The primers were designed to avoid CG pairs and to account for the conversion of dC to dU by the bisulfite. EcoRI sites were added to the forward primers, and XbaI to the reverse, to facilitate cloning. The amplified fragments were then cloned into PBS+, and 5 clones sequenced for each fragment. The primers used were: […]
The effect of lupus and DNA methylation inhibitors on a regulatory element in the CD70 promoter was examined. DNA was isolated from the CD4+ T cells of 7 healthy individuals or 6 lupus patients, bisulfite treated, the region from −466-−515, containing 6 CG pairs was amplified by PCR, and 5 fragments sequenced from each individual. The average methylation status of the 6 CG pairs for healthy versus lupus individuals is shown (FIG. 8, NI and Lupus, respectively). CD4+ T cells from 5 individuals were also stimulated with PHA, treated with the irreversible DNA methyltransferase inhibitor 5-azacytidine (5-azaC), and the methylation status of the 6 CG pairs similarly analyzed from the 25 fragments sequenced (FIG. 8, 5-azaC). […] Results are presented as the mean±SEM of the average methylation of the 6 CG pairs, measured from the 10-35 determinations/group.
The effects of the DNA methylation inhibitors on the methylation status of this region were then compared. […] Again, 5 cloned fragments were sequenced from each control, for a total of 35 determinations per CG pair. […] FIG. 14 compares the average methylation for the 10 CG pairs (−515 to −423) in the T cells treated with DNA methylation inhibitors relative to stimulated, untreated controls.

[4] = tested on: B cell IgG production; assay: T cell and B cell costimulation assay, IgG ELISA of supernatants; type: cell-based, human; settings: autologous B cells; for IgG produced by B cells cultured with drug-treated cloned T cells vs untreated T cells: TT48E treated 3 days, without PWM, P<0.05 (FIG. 4); for IgG secreted by B cells cultured with drug-treated T cells vs untreated T cells: unfractionated PHA-stimulated T cells, PWM, 8 days, P<0.05 (FIG. 3)
Description: T cell and B cell costimulation assays. E-rosette-purified T cells were stimulated for 16 hours with PHA and then treated with the indicated chemicals for an additional 72 hours as described above. Where indicated, T cell subsets were isolated by negative selection using magnetic beads (Miltenyi). B cells (1-4×10^5) enriched by negative selection using magnetic beads (Miltenyi) and assessed to be 70-85% pure using PE-conjugated anti-human CD21 (PHARMINGEN), were added to washed, drug-treated autologous T cells, at T cell to B cell ratios of 4:1, 2:1, 1:1, 1:2, and 1:4. Where indicated, 0.625 μg/ml of PWM (ALDRICH) was added. The cells were cultured in RPMI 1640/10% FBS/penicillin/streptomycin for 8 days in 96-well roundbottomed plates (Costar) containing a 200 μl total volume (performed in duplicate). Cells were supplemented with 50 μl of medium on day 4. Where indicated, 1 μg/ml of anti-CD70 monoclonal antibody (HNE51) (DAKO) was added to the cultures. TT48E cells were similarly stimulated with PHA (1 μg/ml) for 18 hours, treated with the indicated drugs for 3 days, then similarly cultured with autologous B cells for 8 days. Where indicated, the TT48E cells were pretreated with 1 μg/ml of anti-CD70 for 30 minutes at 4° C., then washed and added to the B cells, according to protocols described by others (See, e.g., Kobata et al., Proc Natl Acad Sci USA 92, 11249 (1995)).
IgG enzyme-linked immunosorbent assays (ELISAs). IgG was measured in the supernatants of the T cell-B cell cultures (See, e.g., Richardson et al., Clin Immunol Immunopathol 55, 368 (1990)). Briefly, 96-well flatbottomed polystyrene plates (Costar) were coated with 1 μg/ml of goat anti-human IgG (Southern Biotech) and washed. Unreacted combining sites were sealed with 3% bovine serum albumin (BSA) in phosphate buffered saline (PBS) by incubation at 4° C. for 16 hours. Pooled supernatants from duplicate wells were diluted 1:5 in PBS/1% BSA, and 50 μl was added to the wells. Serial dilutions of purified human IgG (Sigma) were used for quantitation. Following incubation and washing, goat anti-human IgG conjugated with horseradish peroxidase (Southern Biotech) was added, and cells were incubated for 2 hours at room temperature. The wells were washed 3 times with PBS/0.1% Tween 20, and color was developed using Sigma Fast tablets. The plates were read at 405 nm using a SpectraMax spectrophotometer (Molecular Devices). All determinations were performed in quadruplicate.
Since CD70 participates in T cell-dependent B cell stimulation (See e.g., Kobata et al., Proc Natl Acad Sci USA 92, 11249 (1995)), the effects of DNA methylation inhibitors on CD70-dependent B cell help were examined. […] Eight days later, total IgG in the supernatants was measured by ELISA. […]

[5] = tested on: CD70; assay: Flow cytometric analysis of CD70 expression on drug-treated T cells; type: cell-based, human; settings: for CD70 expression on CD4+ T cells: summary statement; for increase of CD70 MFI on CD4+ T cells: 1 μM 5-azaC (n=5), 25 μM PD98059 (n=3), 40 μM U0126 (n=4); for CD70 expression increase on cloned T cell line TT48E: 1 μM 5-azaC or 40 μM U0126 for 3 days, 6 serial experiments; for CD70 expression on PHA-stimulated T cells, treated vs untreated: unfractionated T cells, 3 days, 1 μM 5-azaC, procainamide dose response, 25 μM PD98059, 40 μM U0126 (FIG. 2)
[6] = tested on: CD70; assay: CD70 expression on CD4+ cells of PBMCs cultured with medications used to treat lupus, flow cytometry; type: cell-based, human; settings: PBMCs with or without PHA, 24 hours, graded concentrations (1-100 μM)

Nc1ncn([C@H]2C[C@H](O)[C@@H](CO)O2)c(=O)n1 [2-deoxy-5-azaC]
CD70 expression increase in treated cells relative to untreated controls [1]: 2.6±0.6 fold

Nc1ncn([C@@H]2O[C@H](CO)[C@@H](O)[C@H]2O)c(=O)n1 [5-azaC, 5-azacytidine]
CD70 mRNA (transcripts) in CD4+ T cells [2]: increased steady state levels of CD70 mRNA | expression of CD70 mRNA relative to that of beta-actin [2]: increased the expression of CD70 mRNA | methylation of the 10 CG pairs between −515 and −423 of the TNFSF7 promoter [3]: hypomethylated compared to controls | IgG produced by B cells cultured with drug-treated cloned T cells vs untreated T cells [4]: greater amounts of IgG | IgG secreted by B cells cultured with drug-treated T cells vs untreated T cells [4]: greater amounts of IgG | CD70 expression increase in treated cells relative to untreated controls [1]: > 2 fold | CD70 expression on CD4+ T cells [5]: increased CD70 expression | increase of CD70 MFI on CD4+ T cells [5]: 1.53±0.45 fold | CD70 expression increase on cloned T cell line TT48E [5]: 1.69±0.33 fold | concentration producing the greatest effect on CD70 expression ([5]; range of 5-azaC concentrations, PHA-stimulated T cells, n=5 experiments (FIG. 2B)): 1 µM | CD70 expression on PHA-stimulated T cells, treated vs untreated [5]: small increase

Sc1ncnc2nc[nH]c12 [6-MP, 6-mercaptopurine]
CD70 expression on stimulated or unstimulated CD4+ cells [6]: No increase in CD70 expression

COc1cccc(-c2cc(=O)c3ccccc3o2)c1N [PD98059]
CD70 mRNA (transcripts) in CD4+ T cells [2]: increased steady state levels of CD70 mRNA | methylation of the 10 CG pairs between −515 and −423 of the TNFSF7 promoter [3]: appears to demethylate | CD70 expression on CD4+ T cells [5]: increased CD70 expression | increase of CD70 MFI on CD4+ T cells [5]: 1.63±0.43 fold | CD70 expression on PHA-stimulated T cells, treated vs untreated [5]: increase in CD70 expression

N#CC(=C(/N)Sc1ccccc1N)/C(C#N)=C(\N)Sc1ccccc1N [U0126]
CD70 mRNA (transcripts) in CD4+ T cells [2]: increased steady state levels of CD70 mRNA | expression of CD70 mRNA relative to that of beta-actin [2]: increased the expression of CD70 mRNA | methylation of the 10 CG pairs between −515 and −423 of the TNFSF7 promoter [3]: appears to demethylate | IgG produced by B cells cultured with drug-treated cloned T cells vs untreated T cells [4]: greater amounts of IgG | IgG secreted by B cells cultured with drug-treated T cells vs untreated T cells [4]: greater amounts of IgG | CD70 expression on CD4+ T cells [5]: increased CD70 expression | increase of CD70 MFI on CD4+ T cells [5]: 3.20±0.44 fold | CD70 MFI increase in T cells treated with U0126 (FIG. 2I) ([5]; T cells treated with 40 μM U0126, P=0.085): 2.83±0.95 fold | CD70 expression increase on cloned T cell line TT48E [5]: 1.87±0.37 fold | CD70 expression on PHA-stimulated T cells, treated vs untreated [5]: increase in CD70 expression

CCN(CC)CCCC(C)Nc1ccnc2cc(Cl)ccc12 (stereo not drawn) [chloroquine]
CD70 expression on stimulated or unstimulated CD4+ cells [6]: No increase in CD70 expression

C[C@]12CCC(=O)C=C1CC[C@@H]1[C@@H]2[C@@H](O)C[C@@]2(C)[C@H]1CC[C@]2(O)C(=O)CO [hydrocortisone]
CD70 expression on stimulated or unstimulated CD4+ cells [6]: No increase in CD70 expression

COc1ccc2c(c1)c(CC(=O)O)c(C)n2C(=O)c1ccc(Cl)cc1 [indomethacin]
CD70 expression on stimulated or unstimulated CD4+ cells [6]: No increase in CD70 expression

CCN(CC)CCNC(=O)c1ccc(N)cc1 [procainamide]
CD70 mRNA (transcripts) in CD4+ T cells [2]: increased steady state levels of CD70 mRNA | methylation of the 10 CG pairs between −515 and −423 of the TNFSF7 promoter [3]: appears to demethylate | methylation of the region from −466-−515 (6 CG pairs) of the CD70 promoter ([3]; PHA-stimulated CD4+ T cells (FIG. 8)): demethylate this region | CD70 expression on CD4+ T cells [5]: increased CD70 expression | CD70 expression on PHA-stimulated T cells, treated vs untreated [5]: increase in the ratio of the mean fluorescence intensity (MFI) of CD70 expression
